These results are taken from EP2292587A1, “PHARMACEUTICAL COMPOSITION FOR INHIBITING THE TRANSCRIPTION FACTOR INDUCIBLE BY HYPOXIA, MODULATORS OF PATHOLOGICAL PROCESSES OF ANGIOGENESIS, ONCOGENESIS, INFLAMMATION, APOPTOSIS, AND CELLULAR THERAPY” (Fundacion De La Comunidad Valenciana Centro De …, priority 2008, dated 2009).

Bounds are passed on as bounds.

One test concerns HIF. Put plainly: luciferase cell assay based on the HIF response elements (HRE), HeLa 9XHRE-LUC. Set-up: species or system human. Particulars: Homo sapiens; cell assay based on the HIF response elements (Example 1), HeLa 9XHRE-LUC; read-out: IC50 HRE. From the text:
In order to identify direct inhibitors of the activity of HIF, a stable recombinant line was first constructed from the cervical tumor line, known in scientific literature as HeLa, which contained the deoxyribonucleic acid (DNA) sequences of the region located between positions -985 and -951 of the human vascular endothelial growth factor (hVEGF), repeated nine times (9X) and fused to the luciferase reporter gene (LUC). This plasmid, provided by Dr. Manuel Ortiz de Landazuri from the Hospital de La Princesa of Madrid, called 9XHRE-LUC, was prepared using a commercial kit (Endofree Maxi-Prep; Qiagen, Inc., Valencia, CA). The transfections were performed with FuGene6 (Roche, cat.1814443) according to the manufacturer's instructions, the µg DNA: µg FuGene ratio was 1:3. The transfected cell lines were generated by cotransfection with the vector pCMV-Hygrom which expressed a hygromycin resistance gene in mammalian cells, allowing the selection of the transfected clones. After 48 hours, the growth medium was substituted with fresh medium containing 100 µg/ml hygromycin (Sigma), the clones resistant to the antibiotic were collected and analyzed by means of RT-PCR to select the clone with the desired construct. Routinely, the HeLa 9XHRE-LUC cell line was maintained in exponential growth by means of performing subcultures in DMEM (Invitrogen-Life Technologies, Inc., Carlsbad, CA), supplemented with 10% inactivated fetal bovine serum (Whittacker Bioproducts), penicillin (50 IU/ml), streptomycin (50 µg/ml) (Invitrogen-Life Technologies, Inc., Carlsbad, CA). The cells were cultured at 37°C with a humidified atmosphere containing 5% CO2 and 300 nM Desferoxamine (DFX; Sigma St. Louis, MO).
The compounds of the Collection of the CIPF, coming from a selection of commercial collections of Sigma-Aldrich, were solubilized in DMSO at a final concentration of 5 mM and preserved at -80°C. The concentration of these compounds in the luciferase assay was 1 mcM finally in the well of the multi-well plate in which the reaction was carried out. The luciferase assays were performed in white 96-well plates (Valtecknova ref. 3917), using the kit Bright-Glo™ Luciferase Assay System (Promega, Inc., Madison, WI) following the instructions supplied by the manufacturer.
According to the methodology of the cell assay based on the HIF response elements (Example 1), the intermediate compounds of the synthesis and several synthesized analogs were tested to obtain the SAR of FM19G11.
A word on the IC50: it is the concentration that gives 50% inhibition. Turning to `COC(=O)c1cccc(NC(=O)c2ccc([N+](=O)[O-])cc2[N+](=O)[O-])c1` [Compound 2, methyl 3-((2,4-dinitro)benzamido)benzoate], the IC50 is > 1000 nM. Take `O=C(O)c1cccc(NC(=O)c2ccc([N+](=O)[O-])cc2[N+](=O)[O-])c1` [Compound 3, 3-((2,4-dinitro)benzamido)benzoic acid]: the IC50 is > 1000 nM.

Take `COC(=O)c1cccc(NC(=O)c2ccc(C(F)(F)F)cc2[N+](=O)[O-])c1` [Compound 5, methyl 3-(2-nitro-4-(trifluoromethyl)benzamido)benzoate]: the IC50 is > 1000 nM.

For the compound `O=C(O)c1cccc(NC(=O)c2ccc(C(F)(F)F)cc2[N+](=O)[O-])c1` [Compound 6, 3-(2-nitro-4-(trifluoromethyl)benzamido)benzoic acid], the IC50 was > 1000 nM. The same measure, in the same setting: for `Cc1ccc(C(=O)COC(=O)c2cccc(NC(=O)c3ccc(C(F)(F)F)cc3[N+](=O)[O-])c2)cc1` [Compound 7, 2-oxo-2-(p-tolyl)ethyl 3-(2-nitro-4-(trifluoromethyl)benzamido)benzoate] the value was 84 nM; for `COC(=O)c1cccc(NC(=O)c2ccc([N+](=O)[O-])cc2C(F)(F)F)c1` [Compound 8, methyl 3-(4-nitro-2-(trifluoromethyl)benzamido)benzoate], > 1000 nM; for `O=C(O)c1cccc(NC(=O)c2ccc([N+](=O)[O-])cc2C(F)(F)F)c1` [Compound 9, 3-(4-nitro-2-(trifluoromethyl)benzamido)benzoic acid], > 1000 nM.

For `Cc1ccc(C(=O)COC(=O)c2cccc(NC(=O)c3ccc([N+](=O)[O-])cc3C(F)(F)F)c2)cc1` [Compound 10, 2-oxo-2-(p-tolyl)ethyl 3-(4-nitro-2-(trifluoromethyl)benzamido)benzoate], the IC50 came out at 140 nM. Take `O=C(O)c1cccc(NC(=O)c2ccc(C(F)(F)F)cc2C(F)(F)F)c1` [Compound 12, 3-(2,4-bis-(trifluoromethyl)benzamido)benzoic acid]: the IC50 is > 1000 nM. For the compound `Cc1ccc(C(=O)COC(=O)c2cccc(NC(=O)c3ccc(C(F)(F)F)cc3C(F)(F)F)c2)cc1` [Compound 13, 2-oxo-2-(p-tolyl)ethyl 3-(2,4-bis(trifluoromethyl)benzamido)benzoate], the half-maximal inhibitory concentration (IC50) was found to be 300 nM. The same measure, in the same setting: for `Cc1ccc(C(=O)COC(=O)c2cccc(NC(=O)c3ccccc3)c2)cc1` [Compound 16, 2-oxo-2-(p-tolyl)ethyl 3-(benzamido)benzoate] the value was > 1000 nM; for `O=C(COC(=O)c1cccc(NC(=O)c2ccc([N+](=O)[O-])cc2[N+](=O)[O-])c1)c1ccccc1` [Compound 19, 2-phenyl-2-oxoethyl 3-(2,4-(dinitro)benzamido)benzoate], > 1000 nM. The same measure, in the same setting: for `Cc1ccc(C(=O)COC(=O)c2cccc(NC(=O)c3ccc([N+](=O)[O-])cc3)c2)cc1` [Compound 22, 2-oxo-2-(p-tolyl)ethyl 3-(4-nitrobenzamido)benzoate] the value was 2500 nM; for `COC(=O)c1cccc(NC(=O)c2ccccc2[N+](=O)[O-])c1` [Compound 23, methyl 3-(2-nitrobenzamido)benzoate], > 1000 nM. As for `O=C(O)c1cccc(NC(=O)c2ccccc2[N+](=O)[O-])c1` [Compound 24, 3-(2-nitrobenzamido)benzoic acid], the IC50 was 1400 nM. Still for that read-out and setting: for `Cc1ccc(C(=O)COC(=O)c2cccc(NC(=O)c3ccccc3[N+](=O)[O-])c2)cc1` [Compound 25, 2-oxo-2-(p-tolyl)ethyl 3-(2-nitrobenzamido)benzoate] the value was 2800 nM; for `O=C(O)c1ccc(C(=O)COC(=O)c2cccc(NC(=O)c3ccc([N+](=O)[O-])cc3[N+](=O)[O-])c2)cc1` [Compound 29, 4-(2-(3-(2,4-dinitrobenzamido)benzoyloxy)-acetyl)benzoic acid], 1400 nM.

Staying with this test, now noted: cell assay based on the HIF response elements (Example 1), HeLa 9XHRE-LUC; read-out: IC50 HRE.
With `O=C(COC(=O)c1cccc(NC(=O)c2ccc([N+](=O)[O-])cc2[N+](=O)[O-])c1)c1ccc(C(F)(F)F)cc1` [Compound 17, 2-oxo-2-(4-trifluoromethyl) ethyl 3-(2,4-(dinitro)benzamido)benzoate], the IC50 turned out to be 1000 nM. Same read-out and setting: the figure for `O=C(COC(=O)c1cccc(NC(=O)c2ccc([N+](=O)[O-])cc2[N+](=O)[O-])c1)c1ccc(O)cc1` [Compound 26, 2-(4-hydroxyphenyl)-2-oxoethyl 3-(2,4-(dinitro)benzamido)benzoate] is 360 nM.
